Source: patent publication US6472397B1, “Nitrogen-containing heterocyclic compounds having antiplatelet aggregation effect and medicinal use thereof” (Meiji Seika Kaisha, Ltd., priority 1998, dated 2002)

Columns and labels:
[1] = system: human PRP (platelet rich plasma); experiment: Platelet aggregation inhibiting effect, ADP-induced, human PRP; format: cell-based; details: ADP final concentration 5 μM, preincubation 2 minutes, read-out: IC50 calculated from the aggregation rate
Experimental: Among the compounds represented by the general formula (I) according to the present invention, the platelet aggregation inhibiting effect of the above compound A was examined with human PRP (platelet rich plasma).
A 9 volume sample of blood was taken out through an injection syringe having 1 volume of 3.8% sodium citrate added thereto from the vein of normal human (male), centrifuged at 170×g for 10 minutes at room temperature, and the resulting supernatant was isolated as PRP. The residual blood from which PRP had been isolated was centrifuged at 2,700×g for 15 minutes, and the resulting supernatant was isolated as platelet poor plasma (PPP).
The platelet aggregation test was carried out with AGGRIGOMETER (PAM-8C) manufactured by MEBANICS. The substance to be tested is dissolved in 50% DMSO-physiological saline, 50% methanol-physiological saline, or a physiological saline. The preincubation time of the substance to be tested and PRP was set as 2 minutes. An aggregation driving agent ADP (CHRONO-PARREAGENTS384 ADP, CHRONO-LOG Corp.) was diluted with physiological saline so that the final concentration is 5 μM.
The platelet aggregation inhibiting activity was calculated from the following equation as the suppressive rate against the […] by ADP when no compound to be tested was added:
Platelet aggregation inhibiting activity (%)= [formula]

[2] = Oral administration test: bioavailability in rats; format: in vivo; details: result in words
Experimental: 1) Preparation of a Solution to be Administered
The compound was dissolved or suspended in either of the solvents in which the compound is preferably dispersed or dissolved including distilled water, CMC-Na, Tween 80, and HCO 60 to prepare the liquids for intravenous injection and oral administration. The liquids for intravenous injection and oral administration have a concentration of 0.3 mg/ml and 5 mg/ml, respectively. The concentrations of the compounds were determined by HPLC.
Rats having fasted for 16-20 hours were subjected to cannulation with a polyethylene tube (PE50) into femoral artery. […] The plasma samples were treated according to the method described below, and the activity substance was then measured by HPLC. […]
Among the observed values after administration, the observed values corresponding to the maximum plasma concentration (Cmax) and the time for reaching the maximum plasma concentration (Tmax) were confirmed. […] The area below the plasma concentration-time curve from 0 to infinity (AUCinfinite) was calculated by the trapezoidal method until the final observed value, and after the final observed value from the final observed value/kel as the sum of respective values. […]
Bioavailability (B.A. (%)) was calculated from the following equation: […]

Compound | IC50 [1] [nM] | absorption capacity via oral administration [2]
O=C(O)COc1ccc(C(=O)CN2CCN(C3CCNCC3)CC2=O)cc1 [Compound A] | 42 | –
CCOC(=O)COc1ccc(C(=O)CNC(=O)c2cc3c(s2)CCN(C(=O)OC(C)OC(C)=O)C3)cc1OCC(=O)OCC (centres unmarked) [Compound B, Diethyl [[4-[[[[5-(1-Acetoxyethyl)oxycarbonyl-4,5,6,7-tetrahydrothieno[3,2-c]pyridin-2-yl]carbonyl]amino]-acetyl]-o-phenylene]dioxy]diacetate] | – | no high absorption capacity
